Structures are written as SMILES.

This test relates to BRD pathogens, M. haemolytica and P. multocida. Nature of the test: MIC screening panel of BRD pathogens (antibacterial / non-antibacterial). To be noted: read-out: antibacterial / non-antibacterial (MIC for the BRD pathogens).
Consider `CC[C@H]1OC(=O)[C@H](C)[C@@H](O)[C@H](C)[C@@H](O[C@@H]2O[C@H](C)C[C@H](N(C)C(=O)Nc3cccc(Cl)c3)[C@H]2O)[C@](C)(O)C[C@@H](C)CN[C@H](C)[C@@H](O)[C@]1(C)O` [Example A-23, 3-(3-chlorophenyl)-1-((2S,3R,4S,6R)-2-(((2R,3S,4R,5R,8R,10R,11R,12S,13S,14R)-2-ethyl-3,4,10,13-tetrahydroxy-3,5,8,10,12,14-hexamethyl-15-oxo-1-oxa-6-azacyclopentadecan-11-yl)oxy)-3-hydroxy-6-methyltetrahydro-2H-pyran-4-yl)-1-methylurea], for which the MIC was greater than 64 µg/mL.
Consider `CC[C@H]1OC(=O)[C@H](C)[C@@H](O)[C@H](C)[C@@H](O[C@@H]2O[C@H](C)C[C@H](N(C)C(=O)Nc3cc(C)n(C)n3)[C@H]2O)[C@](C)(O)C[C@@H](C)CN[C@H](C)[C@@H](O)[C@]1(C)O` [Example A-7, 3-(1,5-dimethyl-1H-pyrazol-3-yl)-1-((2S,3R,4S,6R)-2-(((2R,3S,4R,5R,8R,10R,11R,12S,13S,14R)-2-ethyl-3,4,10,13-tetrahydroxy-3,5,8,10,12,14-hexamethyl-15-oxo-1-oxa-6-azacyclopentadecan-11-yl)oxy)-3-hydroxy-6-methyltetrahydro-2H-pyran-4-yl)-1-methylurea], for which the MIC was greater than 64 µg/mL.
Turning to `CCCNC[C@]1(O)[C@H](C)O[C@@H](O[C@H]2[C@H](C)[C@@H](O[C@@H]3O[C@H](C)C[C@H](N(C)C(=O)N(C)c4ccccc4)[C@H]3O)[C@](C)(O)C[C@@H](C)CN(C)[C@H](C)[C@@H](O)[C@](C)(O)[C@@H](CC)OC(=O)[C@@H]2C)C[C@@]1(C)OC` [Example H-101, 1-((2S,3R,4S,6R)-2-(((2R,3S,4R,5R,8R,10R,11R,12S,13S,14R)-2-ethyl-3,4,10-trihydroxy-13-(((2R,4R,5S,6S)-5-hydroxy-4-methoxy-4,6-dimethyl-5-((propylamino)methyl)tetrahydro-2H-pyran-2-yl)oxy)-3,5,6,8,10,12,14-heptamethyl-15-oxo-1-oxa-6-azacyclopentadecan-11-yl)oxy)-3-hydroxy-6-methyltetrahydro-2H-pyran-4-yl)-1,3-dimethyl-3-phenylurea], the MIC is greater than 64 µg/mL.
For `CC[C@H]1OC(=O)[C@H](C)[C@@H](O[C@H]2C[C@@](C)(OC)[C@](O)(CC#N)[C@H](C)O2)[C@H](C)[C@@H](O[C@@H]2O[C@H](C)C[C@H](N(C)C(=O)N(C)c3ccc(C(F)(F)F)cc3)[C@H]2O)[C@](C)(O)C[C@@H](C)CN[C@H](C)[C@@H](O)[C@]1(C)O` [Example G-3, 1-((2S,3R,4S,6R)-2-(((2R,3S,4R,5R,8R,10R,11R,12S,13S,14R)-13-(((2R,4R,5S,6S)-5-(cyanomethyl)-5-hydroxy-4-methoxy-4,6-dimethyltetrahydro-2H-pyran-2-yl)oxy)-2-ethyl-3,4,10-trihydroxy-3,5,8,10,12,14-hexamethyl-15-oxo-1-oxa-6-azacyclopentadecan-11-yl)oxy)-3-hydroxy-6-methyltetrahydro-2H-pyran-4-yl)-1,3-dimethyl-3-(4-(trifluoromethyl)phenyl)urea] the value was greater than 64 µg/mL; for `CCCNC[C@]1(O)[C@H](C)O[C@@H](O[C@H]2[C@H](C)[C@@H](O[C@@H]3O[C@H](C)C[C@H](N(C)C(=O)N(C)c4ncc(C5CC5)cn4)[C@H]3O)[C@](C)(O)C[C@@H](C)CN[C@H](C)[C@@H](O)[C@](C)(O)[C@@H](CC)OC(=O)[C@@H]2C)C[C@@]1(C)OC` [Example H-52, 1-(5-cyclopropylpyrimidin-2-yl)-3-((2S,3R,4S,6R)-2-(((2R,3S,4R,5R,8R,10R,11R,12S,13S,14R)-2-ethyl-3,4,10-trihydroxy-13-(((2R,4R,5S,6S)-5-hydroxy-4-methoxy-4,6-dimethyl-5-((propylamino)methyl)tetrahydro-2H-pyran-2-yl)oxy)-3,5,8,10,12,14-hexamethyl-15-oxo-1-oxa-6-azacyclopentadecan-11-yl)oxy)-3-hydroxy-6-methyltetrahydro-2H-pyran-4-yl)-1,3-dimethylurea], greater than 64 µg/mL.
Take `CC[C@H]1OC(=O)[C@H](C)[C@@H](O[C@H]2C[C@@](C)(OC)[C@](O)(CN3CCC3)[C@H](C)O2)[C@H](C)[C@@H](O[C@@H]2O[C@H](C)C[C@H](N(C)C(=O)N(C)c3ccccc3)[C@H]2O)[C@](C)(O)C[C@@H](C)CN[C@H](C)[C@@H](O)[C@]1(C)O` [Example J-22, 1-((2S,3R,4S,6R)-2-(((2R,3S,4R,5R,8R,10R,11R,12S,13S,14R)-13-(((2R,4R,5S,6S)-5-(azetidin-1-ylmethyl)-5-hydroxy-4-methoxy-4,6-dimethyltetrahydro-2H-pyran-2-yl)oxy)-2-ethyl-3,4,10-trihydroxy-3,5,8,10,12,14-hexamethyl-15-oxo-1-oxa-6-azacyclopentadecan-11-yl)oxy)-3-hydroxy-6-methyltetrahydro-2H-pyran-4-yl)-1,3-dimethyl-3-phenylurea]: the MIC was greater than 64 µg/mL.
Consider `CC[C@H]1OC(=O)[C@H](C)[C@@H](O)[C@H](C)[C@@H](O[C@@H]2O[C@H](C)C[C@H](N(C)C(=O)Nc3cccc(C(F)(F)F)c3)[C@H]2O)[C@](C)(O)C[C@@H](C)CN[C@H](C)[C@@H](O)[C@]1(C)O` [Example A-10, 1-((2S,3R,4S,6R)-2-(((2R,3S,4R,5R,8R,10R,11R,12S,13S,14R)-2-ethyl-3,4,10,13-tetrahydroxy-3,5,8,10,12,14-hexamethyl-15-oxo-1-oxa-6-azacyclopentadecan-11-yl)oxy)-3-hydroxy-6-methyltetrahydro-2H-pyran-4-yl)-1-methyl-3-(3-(trifluoromethyl)phenyl)urea], for which the MIC was greater than 64 µg/mL.
For `CC[C@H]1OC(=O)[C@H](C)[C@@H](O)[C@H](C)[C@@H](O[C@@H]2O[C@H](C)C[C@H](N(C)C(=O)Nc3ccccc3C)[C@H]2O)[C@](C)(O)C[C@@H](C)CN[C@H](C)[C@@H](O)[C@]1(C)O` [Example A-14, 1-((2S,3R,4S,6R)-2-(((2R,3S,4R,5R,8R,10R,11R,12S,13S,14R)-2-ethyl-3,4,10,13-tetrahydroxy-3,5,8,10,12,14-hexamethyl-15-oxo-1-oxa-6-azacyclopentadecan-11-yl)oxy)-3-hydroxy-6-methyltetrahydro-2H-pyran-4-yl)-1-methyl-3-(o-tolyl)urea] the value was greater than 64 µg/mL; for `CC[C@H]1OC(=O)[C@H](C)[C@@H](O[C@H]2C[C@@](C)(OC)[C@](O)(CN=[N+]=[N-])[C@H](C)O2)[C@H](C)[C@@H](O[C@@H]2O[C@H](C)C[C@H](N(C)C(=O)Nc3ccccc3)[C@H]2O)[C@](C)(O)C[C@@H](C)CN[C@H](C)[C@@H](O)[C@]1(C)O` [Example F-1, 1-((2S,3R,4S,6R)-2-(((2R,3S,4R,5R,8R,10R,11R,12S,13S,14R)-13-(((2R,4R,5S,6S)-5-(azidomethyl)-5-hydroxy-4-methoxy-4,6-dimethyltetrahydro-2H-pyran-2-yl)oxy)-2-ethyl-3,4,10-trihydroxy-3,5,8,10,12,14-hexamethyl-15-oxo-1-oxa-6-azacyclopentadecan-11-yl)oxy)-3-hydroxy-6-methyltetrahydro-2H-pyran-4-yl)-1-methyl-3-phenylurea], greater than 64 µg/mL.
For `CCCNC[C@]1(O)[C@H](C)O[C@@H](O[C@H]2[C@H](C)[C@@H](O[C@@H]3O[C@H](C)C[C@H](N(C)C(=O)Nc4ccc(Cl)cc4)[C@H]3O)[C@](C)(O)C[C@@H](C)CN[C@H](C)[C@@H](O)[C@](C)(O)[C@@H](CC)OC(=O)[C@@H]2C)C[C@@]1(C)OC` [Example H-84, 3-(4-chlorophenyl)-1-((2S,3R,4S,6R)-2-(((2R,3S,4R,5R,8R,10R,11R,12S,13S,14R)-2-ethyl-3,4,10-trihydroxy-13-(((2R,4R,5S,6S)-5-hydroxy-4-methoxy-4,6-dimethyl-5-((propylamino)methyl)tetrahydro-2H-pyran-2-yl)oxy)-3,5,8,10,12,14-hexamethyl-15-oxo-1-oxa-6-azacyclopentadecan-11-yl)oxy)-3-hydroxy-6-methyltetrahydro-2H-pyran-4-yl)-1-methylurea] the value was greater than 64 µg/mL; for `CC[C@H]1OC(=O)[C@H](C)[C@@H](O[C@H]2C[C@@](C)(OC)[C@@H](O)[C@H](C)O2)[C@H](C)[C@@H](O[C@@H]2O[C@H](C)C[C@H](N(C)C(=O)NC3CCCCC3)[C@H]2O)[C@](C)(O)C[C@@H](C)CN(C)[C@H](C)[C@@H](O)[C@]1(C)O` [Example B-10, 3-cyclohexyl-1-((2S,3R,4S,6R)-2-(((2R,3S,4R,5R,8R,10R,11R,12S,13S,14R)-2-ethyl-3,4,10-trihydroxy-13-(((2R,4R,5S,6S)-5-hydroxy-4-methoxy-4,6-dimethyltetrahydro-2H-pyran-2-yl)oxy)-3,5,6,8,10,12,14-heptamethyl-15-oxo-1-oxa-6-azacyclopentadecan-11-yl)oxy)-3-hydroxy-6-methyltetrahydro-2H-pyran-4-yl)-1-methylurea], greater than 64 µg/mL.
The same measure for `CC[C@H]1OC(=O)[C@H](C)[C@@H](O)[C@H](C)[C@@H](O[C@@H]2O[C@H](C)C[C@H](N(C)C(=O)Nc3cccc(C#N)c3)[C@H]2O)[C@](C)(O)C[C@@H](C)CN[C@H](C)[C@@H](O)[C@]1(C)O` [Example A-11, 3-(3-cyanophenyl)-1-((2S,3R,4S,6R)-2-(((2R,3S,4R,5R,8R,10R,11R,12S,13S,14R)-2-ethyl-3,4,10,13-tetrahydroxy-3,5,8,10,12,14-hexamethyl-15-oxo-1-oxa-6-azacyclopentadecan-11-yl)oxy)-3-hydroxy-6-methyltetrahydro-2H-pyran-4-yl)-1-methylurea]: greater than 64 µg/mL; for `CCCNC[C@]1(O)[C@H](C)O[C@@H](O[C@H]2[C@H](C)[C@@H](O[C@@H]3O[C@H](C)C[C@H](N(C)C(=O)NC)[C@H]3O)[C@](C)(O)C[C@@H](C)CN[C@H](C)[C@@H](O)[C@](C)(O)[C@@H](CC)OC(=O)[C@@H]2C)C[C@@]1(C)OC` [Example H-92, 1-((2S,3R,4S,6R)-2-(((2R,3S,4R,5R,8R,10R,11R,12S,13S,14R)-2-ethyl-3,4,10-trihydroxy-13-(((2R,4R,5S,6S)-5-hydroxy-4-methoxy-4,6-dimethyl-5-((propylamino)methyl)tetrahydro-2H-pyran-2-yl)oxy)-3,5,8,10,12,14-hexamethyl-15-oxo-1-oxa-6-azacyclopentadecan-11-yl)oxy)-3-hydroxy-6-methyltetrahydro-2H-pyran-4-yl)-1,3-dimethylurea]: greater than 64 µg/mL.

For the origin of these results see patent publication US12295936B2, “Immunomodulating urea azalides” (Zoetis Services LLC, priority 2020, dated 2025).
